# According to US20210317092A1 (BAYER PHARMA AKTIENGESELLSCHAFT, priority 2016, published 2021):
# Target: T1, human Bradykinin B1 receptor (Homo sapiens, UniProt P46663)
# T1 construct: host or cells: CHO-K1
# T1 sequence (P46663 1-353): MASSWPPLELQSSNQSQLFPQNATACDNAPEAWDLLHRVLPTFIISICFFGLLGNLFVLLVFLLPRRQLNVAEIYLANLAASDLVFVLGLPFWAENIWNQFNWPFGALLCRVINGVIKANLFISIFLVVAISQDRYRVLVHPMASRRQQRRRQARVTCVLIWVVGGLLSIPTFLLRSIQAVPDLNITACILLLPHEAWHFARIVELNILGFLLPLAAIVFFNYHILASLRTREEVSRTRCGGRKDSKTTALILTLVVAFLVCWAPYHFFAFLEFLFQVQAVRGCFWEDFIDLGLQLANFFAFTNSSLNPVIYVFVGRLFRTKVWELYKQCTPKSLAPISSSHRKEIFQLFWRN
# Experiment: Calcium flux Assay (FLIPR) with recombinant CHO-K1 cells expressing human Bradykinin B1 receptor, in presence (hB1 IC50) or absence (hB1 free IC50) of 0.1% BSA
# Format: cell-based
# Conditions: in absence of 0.1% BSA, read-out: hB1 free IC50
row,Structure (SMILES),IC50
1,"CS(=O)(=O)c1ccc(-c2ccc(NC(=O)C3(c4ccc(C(F)(F)F)cc4F)CC3)cc2-c2nnn[nH]2)cn1 [Example 201, 1-[2-fluoro-4-(trifluoromethyl)phenyl]-N-{4-[6-(methylsulfonyl)pyridin-3-yl]-3-(1H-tetrazol-5-yl)phenyl} cyclopropane-carboxamide]",374 nM
2,"CCC1CCN(c2ccc(NC(=O)C3(c4ccc(C)cc4F)CC3)cc2-c2nnn[nH]2)C1=O (centres unmarked) [Example 407, N-[4-(3-ethyl-2-oxopyrrolidin-1-yl)-3-(1H-tetrazol-5-yl)phenyl]-1-(2-fluoro-4-methylphenyl)cy-clopropanecar-boxamide]",474 nM
3,"CCOc1ccc(-c2ccc(NC(=O)C3(c4ccccc4)CC3)cc2-c2nnn[nH]2)cn1 [Example 306, N-[4-(6-ethoxypyridin-3-yl)-3-(1H-tetrazol-5-yl)phenyl]-1-phenylcyclopropane-carboxamide]",45.7 nM
4,"CS(=O)(=O)c1ccc(-c2ccc(NC(=O)C3(c4cccc(Cl)c4)CC3)cc2-c2nnn[nH]2)cn1 [Example 200, 1-(3-chlorophenyl)-N-{4-[6-(methylsulfonyl)pyridin-3-yl]-3-(1H-tetrazol-5-yl)phenyl} cyclopropane-carboxamide]",1170 nM
5,"O=C(Nc1ccc(-c2cnc(C(F)(F)F)nc2)c(-c2nnn[nH]2)c1)C1(c2ccc(C(F)(F)F)cc2)CC1 [Example 205, N-{3-(1H-tetrazol-5-yl)-4-[2-(trifluoromethyl)pyrimidin-5-yl]phenyl)-1-[4-(trifluoromethyl)phenyl] cyclopropane-carboxamide]",170 nM
6,"O=C(Nc1ccc(-c2ccc(C(F)F)nc2)c(-c2nnn[nH]2)c1)C1(c2ccc(F)cc2F)CC1 [Example 273, N-{4-[6-(difluoromethyl)pyridin-3-yl]-3-(1H-tetrazol-5-yl)phenyl}-1-(2,4-difluorophenyl)cy-clopropanecar-boxamide]",24.9 nM
7,"O=C(Nc1ccc(-c2ccc(C(F)(F)F)nc2)c(-c2nnn[nH]2)c1F)C1(c2cccc(Cl)c2)CC1 [Example 297, 1-(3-chlorophenyl)-N-{2-fluoro-3-(1H-tetrazol-5-yl)-4-[6-(trifluoromethyl)pyridin-3-yl]phenyl}cyclopro-panecarboxa-mide]",350 nM
8,"Cc1ccc(C2(C(=O)Nc3ccc(-n4ccc(C(C)(C)C)n4)c(-c4nnn[nH]4)c3)CC2)c(F)c1 [Example 379, N-[4-(3-tert-Butyl-1H-pyrazol-1-yl)-3-(1H-tetrazol-5-yl)phenyl]-1-(2-fluoro-4-methylphenyl)cy-clopropanecar-boxamide]",257 nM
9,"Cc1nc(C(F)(F)F)cn1-c1ccc(NC(=O)C2(c3ccc(OC(F)(F)F)cc3F)CC2)cc1-c1nnn[nH]1 [Example 365, 1-[2-Fluoro-4-(trifluoromethoxy)phenyl]-N-{4-[2-methyl-4-(trifluoromethyl)-1H-imidazol-1-yl]-3-(1H-tetrazol-5-yl)phenyl}cyclopro-panecarboxa-mide]",535 nM
10,"CCC(F)(F)c1ccc(-c2ccc(NC(=O)C3(c4cccc(Cl)c4)CC3)cc2-c2nnn[nH]2)cn1 [Example 283, 1-(3-chlorophenyl)-N-{4-[6-(1,1-difluoropropyl)py-ridin-3-yl]-3-(1H-tetrazol-5-yl)phenyl}cyclopro-panecarboxa-mide]",8.19 nM
11,"CCc1cnn(-c2ccc(NC(=O)C3(c4ccc(C(F)(F)F)cc4F)CC3)cc2-c2nnn[nH]2)c1 [Example 376, N-[4-(4-Ethyl-1H-pyrazol-1-yl)-3-(1H-tetrazol-5-yl)phenyl]-1-[2-fluoro-4-(trifluoromethyl)phenyl]cyclopro-panecarboxamide]",12 nM
12,"COc1cc(-c2ccc(NC(=O)C3(c4cccc(Cl)c4)CC3)cc2-c2nnn[nH]2)cnc1C(F)(F)F [Example 146, 1-(3-chlorophenyl)-N-{4-[5-methoxy-6-(trifluoromethyl)pyridin-3-yl]-3-(1H-tetrazol-5-yl)phenyl} cyclopropane-carboxamide]",100 nM
13,"O=C(Nc1ccc(-n2cc(Cl)cn2)c(-c2nnn[nH]2)c1)C1(c2ccc(OC(F)(F)F)cc2F)CC1 [Example 395, N-[4-(4-chloro-1H-pyrazol-1-yl)-3-(1H-tetrazol-5-yl)phenyl]-1-[2-fluoro-4-(trifluoromethoxy)phenyl]cyclo-propanecarboxa-mide]",16.2 nM
14,"CCOc1ccc(-c2ccc(NC(=O)C3(c4ccc(Cl)cc4F)CC3)cc2-c2nnn[nH]2)cn1 [Example 75, 1-(4-chloro-2-fluorophenyl)-N-[4-(6-ethoxypyridin-3-yl)-3-(1H-tetrazol-5-yl)phenyl] cyclopropane-carboxamide]",14.1 nM

# Same assay, conditions: in presence of 0.1% BSA, read-out: hB1 IC50
row,Structure (SMILES),IC50
1,"O=C(Nc1ccc(-c2cnc3ccoc3c2)c(-c2nnn[nH]2)c1)C1(c2cccc(Cl)c2)CC1 [Example 321, 1-(3-chlorophenyl)-N-[4-(furo[3,2-b]pyridin-6-yl)-3-(1H-tetrazol-5-yl)phenyl]cyclopro-panecarboxa-mide]",152 nM
2,"CCc1cccc(C2(C(=O)Nc3ccc(-c4ccc(OC)c(OC)c4)c(-c4nnn[nH]4)c3)CC2)c1 [Example 40, N-[3′,4′-dimethoxy-2-(1H-tetrazol-5-yl)biphenyl-4-yl]-1-(3-ethylphenyl) cyclopropane-carboxamide]",31.4 nM
3,"COc1ccc(-c2cc(F)c(NC(=O)C3(c4ccc(Cl)cc4F)CC3)cc2-c2nnn[nH]2)cc1C [Example 231, 1-(4-Chloro-2-fluorophenyl)-N-[5-fluoro-4′-methoxy-3′-methyl-2-(1H-tetrazol-5-yl)biphenyl-4-yl]cyclopropane carboxamide]",2200 nM
4,"CCOc1ccc(-c2ccc(NC(=O)C3(c4ccccc4)CC3)cc2-c2nnn[nH]2)cn1 [Example 306, N-[4-(6-ethoxypyridin-3-yl)-3-(1H-tetrazol-5-yl)phenyl]-1-phenylcyclopropane-carboxamide]",133 nM
5,"COc1ccc(-c2ccc(NC(=O)C3(c4ccc(Cl)nc4)CC3)cc2-c2nnn[nH]2)cc1OC [Example 51, 1-(6-Chloropyridin-3-yl)-N-[3′,4′-dimethoxy-2-(1H-tetrazol-5-yl)biphenyl-4-yl]cyclopropane carboxamide]",342 nM
6,"O=C(Nc1cc(-c2nnn[nH]2)c(-c2ccc(C(F)(F)F)nc2)cc1O)C1(c2cccc(Cl)c2)CC1 [Example 262, 1-(3-chlorophenyl)-N-{2-hydroxy-5-(1H-tetrazol-5-yl)-4-[6-(trifluoromethyl)pyridin-3-yl]phenyl}cyclopro-panecarboxa-mide]",72.3 nM
7,"COc1ccc(-c2ccc(NC(=O)C3(c4cccc(Cl)c4)CC3)cc2-c2nnn[nH]2)cc1Cl [Example 117, N-[3′-chloro-4′-methoxy-2-(1H-tetrazol-5-yl)biphenyl-4-yl]-1-(3-chlorophenyl) cyclopropane-carboxamide]",448 nM
8,"COc1ccc(-c2ccc(NC(=O)C3(c4cc(F)ccc4F)CC3)cc2-c2nnn[nH]2)cc1OC [Example 21, 1-(2,5-difluorophenyl)-N-[3′,4′-dimethoxy-2-(1H-tetrazol-5-yl)biphenyl-4-yl]cyclopropane carboxamide]",367 nM
9,"CCOc1ncc(-c2ccc(NC(=O)C3(c4cccc(Cl)c4)CC3)cc2-c2nnn[nH]2)cc1C(F)(F)F [Example 158, 1-(3-chlorophenyl)-N-{4-[6-ethoxy-5-(trifluoromethyl)pyridin-3-yl]-3-(1H-tetrazol-5-yl)phenyl} cyclopropane-carboxamide]",764 nM
10,"COc1ccc(-c2ccc(NC(=O)C3(c4cccc(Cl)c4)CC3)cc2-c2nnn[nH]2)cc1 [Example 314, 1-(3-chlorophenyl)-N-[4′-methoxy-2-(1H-tetrazol-5-yl)biphenyl-4-yl]cyclopropane-carboxamide]",340 nM
11,"CCOc1ccc(-c2ccc(NC(=O)C3(c4cc(F)cc(OC)c4)CC3)cc2-c2nnn[nH]2)cn1 [Example 103, N-[4-(6-ethoxypyridin-3-yl)-3-(1H-tetrazol-5-yl)phenyl]-1-(3-fluoro-5-methoxyphenyl) cyclopropane-carboxamide]",28.1 nM
12,"COc1ccc(-c2ccc(NC(=O)C3(C4CCC(C)CC4)CC3)cc2-c2nnn[nH]2)cc1 (mixture of isomers) [Example 114, N-[4′-methoxy-2-(1H-tetrazol-5-yl)biphenyl-4-yl]-1-(4-methylcyclo-hexyl) cyclopropane carboxamide]",1350 nM
13,"COc1cncc(-c2ccc(NC(=O)C3(c4ccc(C(F)(F)F)cc4)CC3)cc2-c2nnn[nH]2)c1 [Example 154, N-[4-(5-methoxypyridin-3-yl)-3-(1H-tetrazol-5-yl)phenyl]-1-[4-(trifluoromethyl)phenyl] cyclopropane-carboxamide]",27.1 nM
14,"CCOc1ccc(-c2cc(F)c(NC(=O)C3(c4cccc(Cl)c4)CC3)cc2-c2nnn[nH]2)cn1 [Example 342, 1-(3-chlorophenyl)-N-[4-(6-ethoxypyridin-3-yl)-2-fluoro-5-(1H-tetrazol-5-yl)phenyl]cyclopro-panecarboxa-mide]",1770 nM
15,"COc1ccc(-c2ccc(NC(=O)C3(CC4CCCCC4)CC3)cc2-c2nnn[nH]2)cc1OC [Example 54, 1-(cyclohexyl-methyl)-N-[3′,4′-dimethoxy-2-(1H-tetrazol-5-yl)biphenyl-4-yl]cyclopropane carboxamide]",544 nM
16,"COc1ccc(-c2ccc(NC(=O)C3(c4ccccc4F)CC3)cc2-c2nnn[nH]2)cc1OC [Example 3, N-[3′,4′-dimethoxy-2-(1H-tetrazol-5-yl)biphenyl-4-yl]-1-(2-fluorophenyl) cyclopropane-carboxamide]",54.8 nM
17,"COc1ccc(-c2c(C)cc(NC(=O)C3(c4cccc(Cl)c4)CC3)cc2-c2nnn[nH]2)cc1OC [Example 250, 1-(3-Chlorophenyl)-N-[3′,4′-dimethoxy-2-methyl-6-(1H-tetrazol-5-yl)biphenyl-4-yl]cyclopropane carboxamide]",240 nM
18,"CCOc1ccc(-c2ccc(NC(=O)C3(c4ccc(Cl)cc4F)CC3)cc2-c2nnn[nH]2)cn1 [Example 75, 1-(4-chloro-2-fluorophenyl)-N-[4-(6-ethoxypyridin-3-yl)-3-(1H-tetrazol-5-yl)phenyl] cyclopropane-carboxamide]",22.7 nM
